{"source": "patent US8058295B2", "about": "“Cystic fibrosis transmembrane conductance regulator protein inhibitors and uses thereof” (The Regents of the University of California, priority 2002, dated 2011)", "test_system": "STa toxin-induced fluid secretion", "design": "species or system rats", "conditions": "rat, in vivo"}
{"smiles": "O=C(O)c1ccc(/C=C2\\SC(=S)N(c3cccc(C(F)(F)F)c3)C2=O)cc1", "note": "[CFTRinh-172, 3-[(3-trifluoromethyl)phenyl]-5-[(4-carboxyphenyl)methylene]-2-thioxo-4-thiazolidinone]", "values": [{"measurement": "inhibition of intestinal fluid secretion", "value": "~75", "unit": "%"}]}
